The source of these data is PubChem BioAssay (NCI).

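Cells were grown in 96-well plates and exposed to each compound for 48 hours at five concentrations; endpoints were interpolated linearly between bracketing concentrations, or set to the highest concentration if not reached. Definition used: TGI = concentration required for complete inhibition of growth.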 Where only a bound is given, the exact number is not on record here.

Among the test systems are A549 NSCLC; MDA-MB-435; SK-MEL-5 melanoma; SNB-75 CNS; CCRF-CEM leukemia; IGROV1 ovarian; SR leukemia; SN12C renal; K-562 leukemia; MALME-3M melanoma.
Holding throughout (experiment): NCI-60 cell line screen, 48 h

Regarding `CC1=C(C#N)c2nc3ccccc3n2C(=O)C1(C)CCO` (stereo not given), the TGI in the experiment with A549 NSCLC, in the experiment with MDA-MB-435, with SK-MEL-5 melanoma, in the experiment on SNB-75 CNS, in the experiment on CCRF-CEM leukemia and in the experiment on IGROV1 ovarian was more than 100 µM throughout. Also, the TGI in the experiment with SR leukemia, in the experiment on SN12C renal, with K-562 leukemia and in the experiment with MALME-3M melanoma was more than 100 µM each time.
Regarding `Clc1ccc(C=NC23CC4CC(CC(C4)C2)C3)c(Cl)c1`, the TGI in the experiment with A549 NSCLC, with MDA-MB-435, in the experiment on SK-MEL-5 melanoma, with SNB-75 CNS, with CCRF-CEM leukemia and in the experiment with IGROV1 ovarian was more than 10 µM each time. Moreover, the TGI in the experiment on SR leukemia, in the experiment with SN12C renal, in the experiment on K-562 leukemia and with MALME-3M melanoma was more than 10 µM throughout.
Regarding `O=[N+]([O-])c1cc2oc(CSc3ccccc3)nc2cc1Cl`, the TGI with A549 NSCLC is more than 100 µM; in the experiment on MDA-MB-435, more than 100 µM; with SK-MEL-5 melanoma, 33.7 µM; in the experiment on SNB-75 CNS it was 67.5 µM; with CCRF-CEM leukemia it was more than 100 µM; in the experiment on IGROV1 ovarian, more than 100 µM. Also, the TGI with SR leukemia, with SN12C renal, in the experiment with K-562 leukemia and in the experiment with MALME-3M melanoma was more than 100 µM each time.
Regarding `O=C1CSC2(CC(/C=C/c3cccs3)=NN2c2cccc(S(=O)(=O)O)c2)N1c1nc2ccccc2s1` (stereo not given), the TGI with A549 NSCLC, with MDA-MB-435, with SK-MEL-5 melanoma, in the experiment on SNB-75 CNS, with CCRF-CEM leukemia and with IGROV1 ovarian was more than 100 µM in each case. For the same molecule, the TGI in the experiment with SR leukemia, with SN12C renal, in the experiment on K-562 leukemia and with MALME-3M melanoma was more than 100 µM each time.
Regarding `Clc1sc(Cl)c2c1[C@@H](Cl)C[C@@H]2Br`, the TGI was more than 100 µM with A549 NSCLC; more than 100 µM in the experiment on MDA-MB-435; more than 100 µM in the experiment with SK-MEL-5 melanoma; more than 100 µM in the experiment on SNB-75 CNS; 88.1 µM with CCRF-CEM leukemia; more than 100 µM in the experiment on IGROV1 ovarian. In addition, the TGI is 48.3 µM in the experiment on SR leukemia, more than 100 µM with SN12C renal, more than 100 µM in the experiment on K-562 leukemia and more than 100 µM in the experiment with MALME-3M melanoma.
In the case of `Cn1ncc2c(NCc3ccccc3)ncnc21`, the TGI in the experiment on A549 NSCLC, in the experiment on MDA-MB-435, in the experiment with SK-MEL-5 melanoma, in the experiment on SNB-75 CNS, in the experiment on CCRF-CEM leukemia and in the experiment on IGROV1 ovarian was more than 100 µM throughout. Besides, the TGI in the experiment with SR leukemia, with SN12C renal, with K-562 leukemia and in the experiment with MALME-3M melanoma was more than 100 µM each time.
Take `Cc1ccc2c(c1)c1ccc3c(c1n2C)C(=O)C=CC3=O`: the TGI is more than 10 µM with A549 NSCLC; 5.15 µM with MDA-MB-435; more than 10 µM with SK-MEL-5 melanoma; more than 10 µM in the experiment on SNB-75 CNS; 0.62 µM with CCRF-CEM leukemia; more than 10 µM with IGROV1 ovarian. For the same molecule, the TGI in the experiment on SR leukemia is 0.871 µM; in the experiment with SN12C renal, more than 7.51 µM; in the experiment on K-562 leukemia, 2.31 µM; in the experiment on MALME-3M melanoma it was 3.8 µM.
Regarding `Cn1c2ccccc2c2c(=S)c3ccccc3ccc21`, the TGI in the experiment with A549 NSCLC, with MDA-MB-435, in the experiment with SK-MEL-5 melanoma, in the experiment with SNB-75 CNS, in the experiment with CCRF-CEM leukemia and in the experiment with IGROV1 ovarian was more than 100 µM each time. Besides, the TGI with SR leukemia, in the experiment on SN12C renal, in the experiment on K-562 leukemia and with MALME-3M melanoma was more than 100 µM throughout.
With `O=C(CCSC1=NCCCN1)c1ccc(F)cc1`, the TGI was found to be 40.3 µM in the experiment on A549 NSCLC; 47.6 µM in the experiment with MDA-MB-435; 36.4 µM in the experiment with SK-MEL-5 melanoma; 42.6 µM in the experiment on SNB-75 CNS; 11.6 µM in the experiment with CCRF-CEM leukemia; 44.4 µM with IGROV1 ovarian. Besides, the TGI with SR leukemia was 13.3 µM; in the experiment on SN12C renal it was 43.6 µM; with K-562 leukemia, 10.1 µM; in the experiment with MALME-3M melanoma, 19.1 µM.
Consider `COc1ccc(C(=O)NCCN(C)C)c2nc3ccccc3cc12`, for which the TGI with A549 NSCLC worked out at 2.4 µM; in the experiment on MDA-MB-435, 5.13 µM; with SK-MEL-5 melanoma, 2.54 µM; in the experiment on SNB-75 CNS it was 13.3 µM; with CCRF-CEM leukemia, 11.4 µM; with IGROV1 ovarian it was 6.18 µM. Further, the TGI with SR leukemia is 1.5 µM; in the experiment with SN12C renal it was 3.28 µM; with K-562 leukemia, 12.5 µM; in the experiment with MALME-3M melanoma, 2.3 µM.
`O=C(CNc1ccc(Cl)cc1Cl)Nn1c(-c2ccccc2)nc2ccccc2c1=O`: the TGI in the experiment with A549 NSCLC is more than 100 µM; in the experiment with MDA-MB-435, 30.2 µM; in the experiment with SK-MEL-5 melanoma it was 18.5 µM; with SNB-75 CNS it was 30.5 µM; in the experiment with CCRF-CEM leukemia, 16.3 µM; in the experiment with IGROV1 ovarian, 42.2 µM. Further, the TGI with SR leukemia was more than 100 µM; in the experiment with SN12C renal, 30.5 µM; in the experiment on K-562 leukemia it was 36.5 µM; with MALME-3M melanoma, 34.6 µM.
Turning to `CC(C)(C)OC(=O)NC(CSSCC(NC(=O)OC(C)(C)C)C(=O)O)C(=O)O` (stereo not given), the TGI in the experiment with A549 NSCLC, in the experiment on MDA-MB-435, in the experiment with SK-MEL-5 melanoma, in the experiment on SNB-75 CNS, with CCRF-CEM leukemia and in the experiment with IGROV1 ovarian was more than 100 µM in each case. Also, the TGI in the experiment on SR leukemia, with SN12C renal, with K-562 leukemia and with MALME-3M melanoma was more than 100 µM in each case.
`CCOC(=O)CC/C(=N/Nc1ccc(Cl)cc1[N+](=O)[O-])C(=O)OCC`: the TGI in the experiment on A549 NSCLC, in the experiment on MDA-MB-435, in the experiment on SK-MEL-5 melanoma, with SNB-75 CNS, with CCRF-CEM leukemia and in the experiment on IGROV1 ovarian was more than 100 µM throughout. Further, the TGI in the experiment with SR leukemia, with SN12C renal, in the experiment with K-562 leukemia and in the experiment with MALME-3M melanoma was more than 100 µM in each case.
On to `CC(C)N1CCN(c2ccc(OCC3COC(Cn4cncn4)(c4ccc(Cl)cc4Cl)O3)cc2)CC1` (stereo not given), for which the TGI with A549 NSCLC was more than 52 µM; in the experiment on MDA-MB-435, 15.8 µM; with SK-MEL-5 melanoma, 4.92 µM; with SNB-75 CNS, 27.5 µM; in the experiment with CCRF-CEM leukemia it was 32.5 µM; in the experiment on IGROV1 ovarian, 33.6 µM. Further, the TGI turned out to be 12.1 µM with SR leukemia, 30.7 µM in the experiment on SN12C renal, 19.8 µM in the experiment with K-562 leukemia and 22.2 µM in the experiment on MALME-3M melanoma.
As to `COc1cccc2c1OC(c1cccc3ccccc13)C([N+](=O)[O-])=C2` (stereo not given), the TGI amounted to 3.75 µM in the experiment on A549 NSCLC; 3.02 µM with MDA-MB-435; 2.96 µM in the experiment on SK-MEL-5 melanoma; 2.65 µM in the experiment with SNB-75 CNS; 2.02 µM in the experiment on CCRF-CEM leukemia; 7.5 µM with IGROV1 ovarian. Also, the TGI with SR leukemia was more than 100 µM; with SN12C renal, 11.2 µM; in the experiment with K-562 leukemia, 4.19 µM; with MALME-3M melanoma, 4.08 µM.
Regarding `COc1ccc(N2C(=O)C3c4[nH]c5cc(C)ccc5c4C4CCC(C(C)(C)C)CC4C3C2=O)cc1` (stereo not given), the TGI in the experiment on A549 NSCLC is more than 10 µM; in the experiment with MDA-MB-435 it was more than 10 µM; with SK-MEL-5 melanoma, more than 10 µM; with SNB-75 CNS, 6.07 µM; with CCRF-CEM leukemia it was more than 10 µM; with IGROV1 ovarian it was more than 10 µM. Moreover, the TGI in the experiment with SR leukemia, in the experiment with SN12C renal, in the experiment on K-562 leukemia and in the experiment on MALME-3M melanoma was more than 10 µM in each case.
On to `CCN(C(=O)N[C@@H](C)C(=O)N[C@@H](Cc1ccccc1)C(=O)OC)c1ccccc1`, for which the TGI in the experiment with A549 NSCLC, in the experiment on MDA-MB-435, in the experiment on SK-MEL-5 melanoma, with SNB-75 CNS, with CCRF-CEM leukemia and in the experiment with IGROV1 ovarian was more than 100 µM throughout. Further, the TGI in the experiment on SR leukemia was more than 100 µM; in the experiment with SN12C renal, 73.2 µM; with K-562 leukemia, more than 100 µM; with MALME-3M melanoma, 83.8 µM.
With `C=CCn1c(=O)ccn(/C(=C/C(=O)OCC)C(=O)OCC)c1=O`, the TGI in the experiment with A549 NSCLC worked out at 32.3 µM; in the experiment with MDA-MB-435 it was 26.2 µM; with SK-MEL-5 melanoma it was 29.1 µM; with SNB-75 CNS, 30.4 µM; with CCRF-CEM leukemia, 6.04 µM; with IGROV1 ovarian, 29.7 µM. The TGI is 23.2 µM in the experiment on SR leukemia, 25.2 µM in the experiment on SN12C renal, 12.5 µM in the experiment on K-562 leukemia and 25.4 µM in the experiment with MALME-3M melanoma.
On to `Cc1cc(C[C@H]2O[C@@H]3OC(C)(C)O[C@@H]3[C@H]3OC(C)(C)O[C@H]32)c2ccccc2n1`, for which the TGI in the experiment on A549 NSCLC, in the experiment on MDA-MB-435, in the experiment with SK-MEL-5 melanoma, in the experiment on SNB-75 CNS, with CCRF-CEM leukemia and with IGROV1 ovarian was more than 100 µM each time. For the same molecule, the TGI in the experiment with SR leukemia, in the experiment on SN12C renal, with K-562 leukemia and in the experiment with MALME-3M melanoma was more than 100 µM in each case.
As to `O=C(O)c1cccc(S(=O)(=O)NN2C(=O)CSC2c2ccc(Cl)cc2Cl)c1` (stereo not given), the TGI is more than 100 µM with A549 NSCLC; 47 µM in the experiment on MDA-MB-435; more than 100 µM in the experiment on SK-MEL-5 melanoma; more than 100 µM with SNB-75 CNS; more than 100 µM with CCRF-CEM leukemia; more than 100 µM with IGROV1 ovarian. The TGI is 83.5 µM in the experiment with SR leukemia, more than 100 µM with SN12C renal, more than 100 µM with K-562 leukemia and more than 100 µM in the experiment on MALME-3M melanoma.
In the case of `CCOc1c(OC)cc(-c2nc3n(n2)C(=O)C(CC)S3)cc1OC` (stereo not given), the TGI in the experiment with A549 NSCLC, in the experiment on MDA-MB-435, in the experiment with SK-MEL-5 melanoma, in the experiment on SNB-75 CNS, in the experiment with CCRF-CEM leukemia and in the experiment on IGROV1 ovarian was more than 10 µM in each case. Besides, the TGI in the experiment with SR leukemia, with SN12C renal, with K-562 leukemia and in the experiment on MALME-3M melanoma was more than 10 µM each time.
Take `CCN(CC)c1ccc(/C=C/c2ccnc3ccccc23)cc1`: the TGI in the experiment on A549 NSCLC, in the experiment on MDA-MB-435, with SK-MEL-5 melanoma, with SNB-75 CNS, with CCRF-CEM leukemia and with IGROV1 ovarian was more than 100 µM throughout. In addition, the TGI in the experiment on SR leukemia, in the experiment on SN12C renal, with K-562 leukemia and in the experiment with MALME-3M melanoma was more than 100 µM each time.
Take `O=C(CC(=O)Nc1ccccc1)NNC(Sc1ccccc1)c1cc(N=Nc2ccc(Br)cc2)ccc1O` (stereo not given): the TGI in the experiment with A549 NSCLC is more than 10 µM; with MDA-MB-435, more than 10 µM; in the experiment with SK-MEL-5 melanoma, 4.6 µM; with SNB-75 CNS it was more than 10 µM; in the experiment on CCRF-CEM leukemia, more than 10 µM; in the experiment on IGROV1 ovarian, more than 10 µM. The TGI in the experiment on SR leukemia was more than 10 µM; in the experiment on SN12C renal, more than 10 µM; in the experiment on K-562 leukemia it was 6.27 µM; with MALME-3M melanoma it was more than 10 µM.
